Experimental findings from ChEMBL document CHEMBL5724914, “Linking interpersonal differences in gut microbiota composition and drug biotransformation activity” (2024) are described below.

Where a SMILES comes first, the peptide text is derived from it. [ ]: non-standard residue; d: D form. pGlu = O=C1CC[C@@H](C(=O)O)N1; Thz = O=C(O)[C@@H]1CSCN1

Series [1] can be described thus: The drug is tested on Z-021 corresponding to metagenome with ENA study accession number: PRJEB37062 and ENA sample accession number: ERS12561820 for biotransformation under anaerobic condition. The drug concentrations were measured over 9 timepoints collected between 0 and 24 hours of incubation by liquid-chromatography-coupled mass spectrometry (LC–MS). The note with it: 2 µM.

For series [2] the following is noted: human gut metagenome, 24 h, 2 µM.
Series [3] is described as follows: The drug is tested on WLS-350 corresponding to human gut metagenome with ENA study accession number: PRJEB37062 and ENA sample accession number: ERS12561789 for biotransformation under anaerobic condition. The drug concentrations were measured over 9 timepoints collected between 0 and 24 hours of incubation by liquid-chromatography-coupled mass spectrometry (LC–MS). To be noted: 2 µM.

Series [4] is described as follows: The drug is tested on Z-027 corresponding to metagenome with ENA study accession number: PRJEB37062 and ENA sample accession number: ERS12561826 for biotransformation under anaerobic condition. The drug concentrations were measured over 9 timepoints collected between 0 and 24 hours of incubation by liquid-chromatography-coupled mass spectrometry (LC–MS). The note with it: 2 µM.

Series [5] is described as follows: The drug is tested on Z-022 corresponding to mouse gut metagenome with ENA study accession number: PRJEB37062 and ENA sample accession number: ERS12561821 for biotransformation under anaerobic condition. The drug concentrations were measured over 9 timepoints collected between 0 and 24 hours of incubation by liquid-chromatography-coupled mass spectrometry (LC–MS). The note with it: 2 µM.

For series [6] the following is noted: human gut metagenome, 24 h, 2 µM. The source holds these as a separate data set.
Series [7] in a line: The drug is tested on Z-007 corresponding to rat gut metagenome with ENA study accession number: PRJEB37062 and ENA sample accession number: ERS12561807 for biotransformation under anaerobic condition. The drug concentrations were measured over 9 timepoints collected between 0 and 24 hours of incubation by liquid-chromatography-coupled mass spectrometry (LC–MS). To be noted: 2 µM.

The conditions of series [8]: human gut metagenome, 24 h, 2 µM. This is another data set of the same source.
The conditions of series [9]: human gut metagenome, 24 h, 2 µM. This is another data set of the same source.
Series [10] is described as follows: The drug is tested on WLS-007 corresponding to human gut metagenome with ENA study accession number: PRJEB37062 and ENA sample accession number: ERS12561742 for biotransformation under anaerobic condition. The drug concentrations were measured over 9 timepoints collected between 0 and 24 hours of incubation by liquid-chromatography-coupled mass spectrometry (LC–MS). To be noted: 2 µM.

For series [11] the following is noted: human gut metagenome, 24 h, 2 µM. The source holds these as a separate data set.
For series [12] the following is noted: human gut metagenome, 24 h, 2 µM. The source holds these as a separate data set.
The conditions of series [13]: human gut metagenome, 24 h, 2 µM. This is another data set of the same source.
For series [14] the following is noted: human gut metagenome, 24 h, 2 µM. The source holds these as a separate data set.
The conditions of series [15]: human gut metagenome, 24 h, 2 µM. This is another data set of the same source.
The conditions of series [16]: human gut metagenome, 24 h, 2 µM. This is another data set of the same source.
A short description of series [17]: The drug is tested on Z-023 corresponding to metagenome with ENA study accession number: PRJEB37062 and ENA sample accession number: ERS12561822 for biotransformation under anaerobic condition. The drug concentrations were measured over 9 timepoints collected between 0 and 24 hours of incubation by liquid-chromatography-coupled mass spectrometry (LC–MS). To be noted: 2 µM.

The conditions of series [18]: human gut metagenome, 24 h, 2 µM. The source holds these as a separate data set.
For series [19] the following is noted: human gut metagenome, 24 h, 2 µM. This is another data set of the same source.
Series [20] is described as follows: The drug is tested on Z-010 corresponding to metagenome with ENA study accession number: PRJEB37062 and ENA sample accession number: ERS12561810 for biotransformation under anaerobic condition. The drug concentrations were measured over 9 timepoints collected between 0 and 24 hours of incubation by liquid-chromatography-coupled mass spectrometry (LC–MS). The note with it: 2 µM.
Also: call rule not given here.

`CCC(COC(=O)c1cc(OC)c(OC)c(OC)c1)(c1ccccc1)N(C)C.O=C(O)/C=C\C(=O)O` (stereo not given): the “Bacterial Biotransformation” value in series [1] is “Compound metabolized”; in [2], “Compound NOT metabolized”; in series [3], “Compound NOT metabolized”; in series [4], “Compound NOT metabolized”; in series [5], “Compound metabolized”; in series [6], “Compound metabolized”. Besides, the “Bacterial Biotransformation” value in series [7], in series [8], in [9], in series [10], in series [11] and in series [12] was “Compound NOT metabolized” each time. For the same molecule, the “Bacterial Biotransformation” value is recorded as “Compound NOT metabolized” in series [13]; “Compound NOT metabolized” in series [14]; “Compound NOT metabolized” in [15]; “Compound NOT metabolized” in series [16]; “Compound metabolized” in series [17]; “Compound metabolized” in series [18]. Besides, the “Bacterial Biotransformation” value in series [19] is listed as “Compound NOT metabolized”.
Consider `COc1ccc(CCN(C)CCCC(C#N)(c2ccc(OC)c(OC)c2)C(C)C)cc1OC` (stereo not given), for which the “Bacterial Biotransformation” value is on record as “Compound NOT metabolized” in series [1]; “Compound NOT metabolized” in [2]; “Compound metabolized” in series [3]; “Compound NOT metabolized” in series [4]; “Compound NOT metabolized” in series [5]; “Compound metabolized” in series [6]. Also, the “Bacterial Biotransformation” value is given as “Compound NOT metabolized” in series [7]; “Compound metabolized” in [8]; “Compound metabolized” in series [9]; “Compound metabolized” in [10]; “Compound metabolized” in series [11]; “Compound NOT metabolized” in series [12]. The “Bacterial Biotransformation” value is given as “Compound NOT metabolized” in series [13]; “Compound metabolized” in series [14]; “Compound NOT metabolized” in series [15]; “Compound metabolized” in [16]; “Compound metabolized” in [17]; “Compound NOT metabolized” in series [18]. Also, in [19], the “Bacterial Biotransformation” value is “Compound metabolized”.
With `CCCCCCOC(=O)/N=C(/N)c1ccc(NCc2nc3cc(C(=O)N(CCC(=O)OCC)c4ccccn4)ccc3n2C)cc1.CS(=O)(=O)O` [DABIGATRAN ETEXILATE MESYLATE], the “Bacterial Biotransformation” value in series [1], in [3], in series [4], in series [5], in series [7] and in series [8] was “Compound NOT metabolized” throughout. The “Bacterial Biotransformation” value is “Compound NOT metabolized” in series [9]; “Compound NOT metabolized” in series [11]; “Compound NOT metabolized” in [14]; “Compound NOT metabolized” in series [15]; “Compound metabolized” in series [16]; “Compound NOT metabolized” in [17]. Moreover, in series [20], the “Bacterial Biotransformation” value is “Compound NOT metabolized”.
Take `c1ccc([C@H]2CN3CCSC3=N2)cc1` [LEVAMISOLE]: the “Bacterial Biotransformation” value in series [2] is on record as “Compound metabolized”; in series [3], “Compound metabolized”; in series [4] it was “Compound NOT metabolized”; in series [5] it was “Compound metabolized”; in series [6] it was “Compound metabolized”; in series [7], “Compound NOT metabolized”. The “Bacterial Biotransformation” value in series [8] was “Compound metabolized”; in series [9] it was “Compound metabolized”; in series [10] it was “Compound metabolized”; in series [11], “Compound NOT metabolized”; in series [12], “Compound metabolized”; in [13] it was “Compound metabolized”. Also, the “Bacterial Biotransformation” value in [14], in series [15], in series [18] and in [19] was “Compound metabolized” throughout.
As for `C#C[C@]1(O)CC[C@H]2[C@@H]3CCC4=CC(=O)CC[C@@H]4[C@H]3CC[C@@]21CC` [LEVONORGESTREL], the “Bacterial Biotransformation” value is “Compound NOT metabolized” in series [2]; “Compound metabolized” in [3]; “Compound metabolized” in [4]; “Compound metabolized” in [5]; “Compound metabolized” in [6]; “Compound metabolized” in series [7]. The “Bacterial Biotransformation” value is “Compound metabolized” in series [8]; “Compound metabolized” in series [10]; “Compound metabolized” in [11]; “Compound NOT metabolized” in [12]; “Compound metabolized” in series [13]; “Compound metabolized” in series [14]. In addition, the “Bacterial Biotransformation” value in series [15] is “Compound metabolized”; in series [16], “Compound metabolized”; in series [18], “Compound NOT metabolized”; in [19] it was “Compound metabolized”.
For `O=C1CC[C@@H](C(=O)N2CSC[C@H]2C(=O)O)N1` [PIDOTIMOD] ([pGlu]-[Thz]-OH), the “Bacterial Biotransformation” value was “Compound NOT metabolized” in [2]; “Compound NOT metabolized” in series [3]; “Compound NOT metabolized” in series [4]; “Compound metabolized” in series [5]; “Compound NOT metabolized” in series [6]; “Compound NOT metabolized” in series [7]. Further, the “Bacterial Biotransformation” value in [8] was “Compound NOT metabolized”; in series [9] it was “Compound NOT metabolized”; in series [11], “Compound metabolized”; in series [12] it was “Compound NOT metabolized”; in series [13], “Compound NOT metabolized”; in series [14] it was “Compound NOT metabolized”. For the same molecule, the “Bacterial Biotransformation” value is listed as “Compound NOT metabolized” in series [15]; “Compound NOT metabolized” in series [16]; “Compound metabolized” in series [17]; “Compound NOT metabolized” in series [19]; “Compound metabolized” in [20].
